Results: ChEMBL document CHEMBL1201862, “PubChem BioAssay data set” (2004)
Activity calls are given as the source filed them.

Assays:
[1] = molecular target: Large T antigen (Simian virus 40, UniProt P03070); assay type: functional, Betapolyomavirus macacae;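 also: Confirmatory-stage PubChem screen for compounds that inhibit SV40 T antigen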
[2] = molecular target: Oxytocin receptor (Homo sapiens, UniProt P30559); assay: Fluorescence-based cell-based high throughput dose response assay for potentiators of Oxytocin Receptor (OXTR). [Related pubchem assays: 434985 (Confirmation screen (OXTR potentiators in triplicate)), 2481 (Summary (OXTR potentiators)), 2445 (Primary screen (OXTR potentiators in singlicate))]; assay type: functional
[3] = molecular target: Latent membrane protein 1 (Human herpesvirus 4 (strain B95-8), UniProt P03230); assay: TES1-eGFP NF-kB reporter inhibition versus Tet-On dsRED, dose response, selectivity assay for LMP1 NF-kB inhibitor project, imaging, HEK293T, dual-color eGFP/dsRED, cherry-picks (AID 588398); assay type: functional, cell-based
[4] = molecular target: T1, Aspartyl aminopeptidase (Plasmodium falciparum 3D7, UniProt Q8I2J3)
T1 sequence (Q8I2J3 whole entry): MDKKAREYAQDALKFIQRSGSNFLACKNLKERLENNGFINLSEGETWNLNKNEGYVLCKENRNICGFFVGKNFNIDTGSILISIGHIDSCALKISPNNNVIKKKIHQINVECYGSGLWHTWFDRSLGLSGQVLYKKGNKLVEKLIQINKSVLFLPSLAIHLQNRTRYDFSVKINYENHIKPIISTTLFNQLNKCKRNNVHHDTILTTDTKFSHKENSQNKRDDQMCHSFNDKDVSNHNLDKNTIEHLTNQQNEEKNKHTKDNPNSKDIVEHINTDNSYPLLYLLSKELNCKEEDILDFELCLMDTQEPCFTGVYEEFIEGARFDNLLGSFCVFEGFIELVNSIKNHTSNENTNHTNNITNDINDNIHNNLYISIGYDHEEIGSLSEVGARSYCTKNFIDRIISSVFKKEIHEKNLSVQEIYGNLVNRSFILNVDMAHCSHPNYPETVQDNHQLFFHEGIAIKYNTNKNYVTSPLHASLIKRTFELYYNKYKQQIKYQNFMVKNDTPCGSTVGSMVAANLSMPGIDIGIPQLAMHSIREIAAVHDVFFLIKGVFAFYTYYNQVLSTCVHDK

[5] = molecular target: Procathepsin L (Homo sapiens, UniProt P07711)
[6] = molecular target: Hexokinase HKDC1 (Homo sapiens, UniProt Q2TB90); assay: SAR analysis of small molecule inhibitors of hexokinase domain containing I (HKDC1). [Related pubchem assays (depositor defined):AID493160, AID493190]; assay type: functional
[7] = molecular target: Hexokinase-1 (Homo sapiens, UniProt P19367); assay: SAR analysis of small molecule inhibitors of hexokinase domain containing I (HKDC1) in the hexokinase 1 selectivity assay. [Related pubchem assays (depositor defined):AID493160, AID493190]; assay type: functional
[8] = molecular target: T2, Phospholipase D1 (Homo sapiens, UniProt Q13393); assay: PLD1 purified enzyme concentration response. [Related pubchem assays (depositor defined):AID588854]; assay type: functional
[9] = molecular target: T3, Phospholipase D2 (Homo sapiens, UniProt O14939); assay: PLD2 purified enzyme concentration response. [Related pubchem assays (depositor defined):AID588854]; assay type: functional
[10] = system: HEK293; assay: cells; assay type: functional, cell-based; settings: Homo sapiens
[11] = cytotoxicity in OV-90 ovarian cancer cells, dose response, PAX8 inhibitor project, cell-based, plate reader, dry powder, SA8 (AID 743149); assay type: functional
[12] = system: HEK293; assay: cells; assay type: functional, cell-based; settings: Homo sapiens; remark: listed apart in the source
[13] = PAX5 activity inhibitors, dose response, selectivity assay for PAX8 inhibitor project, cell-based, plate reader, dry powder samples (AID 743047); assay type: functional;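 also: HEK293 cells carrying a Pax5 driven CD19 promoter luciferase reporter; potency of inhibitors that lower reporter luminescence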
[14] = A2780 ovarian cancer cell cytotoxicity, dose response, cytotoxicity control, plate reader, dry powder samples (AID 743046); assay type: functional, cell-based
[15] = NIH:OVCAR-3 ovarian cancer cell cytotoxicity, dose response, PAX8 inhibitor project, plate reader, dry powder samples (AID 743044); assay type: functional, cell-based
[16] = cytotoxicity dependent on PAX8, dose response, cell-based, plate reader, dry powder (AID 743049); assay type: functional
[17] = system: HEK293; assay: NOD2 signaling inhibitors in MDP-stimulated cells, cell-based, uHTS, luminescence (AID 2001); assay type: functional; settings: Homo sapiens
[18] = cytotoxicity in COV434 cells, dose response, cytotoxicity control for PAX8 inhibitor project, cell-based, plate reader, dry powder, SA7 (AID 743145); assay type: functional
[19] = molecular target: Nucleotide-binding oligomerization domain-containing protein 2 (Homo sapiens, UniProt Q9HC29); assay: NOD2 signaling inhibitors, cell-based, luminescence, uHTS, HEK293 (AID 1566); assay type: functional
[20] = inhibitors of HIV Env-driven cell fusion, dose response, cherry-pick (AID 652057); assay type: functional, cell-based
[21] = inhibitors of clade B AD8 Env fusion, dose response, cell-based, cherry-pick (AID 652062); assay type: functional;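 also: luciferase signal from cell-cell fusion driven by HIV-1 clade B AD8 Env; potency is for inhibitors of fusion seen as a drop in luminescence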
[22] = PAX2 cell-based inhibition, dose response, selectivity assay for PAX8 inhibitor project, plate reader, dry powder samples (AID 743048); assay type: functional;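 also: HEK293 cells carrying a WT1 promoter luciferase reporter driven by expressed Pax2; potency is for inhibition of Pax2 driven reporter signal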
[23] = ZM109 Env clade C HIV-1 fusion inhibitors, dose response, HeLa effector, CEM target cells, luciferase, cherry-pick (AID 652058); assay type: functional, cell-based
[24] = system: HEK293; assay: cells; assay type: functional, cell-based; settings: Homo sapiens; remark: listed apart in the source
[25] = system: A-375; assay: A375 melanoma cell viability reduction, dose response, counter-screen for MITF modulator project, cherry-pick samples, set 2 (AID 540335); assay type: functional, cell-based; settings: Homo sapiens
[26] = system: INS1; assay: beta cell apoptosis inhibitors, cytokine rescue, dose response, luminescence, retest (AID 449756); assay type: functional, cell-based; settings: Rattus norvegicus;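 also: cell death triggered by IL-1 beta plus TNF-alpha plus IFN-gamma mixture; protective hits raise ATP signal compared with cytokine alone wells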
[27] = molecular target: Paired box protein Pax-8 (Homo sapiens, UniProt Q06710); assay: inhibitors of PAX8-driven TPO luciferase reporter, dose response, RMG-I cells, cherry-pick (AID 687027); assay type: functional, cell-based;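 also: luciferase reporter driven by Pax8 target thyroperoxidase promoter measured by SteadyGlo luminescence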
[28] = CEM21 lymphoblast cell cytotoxicity, dose response, cytotoxicity control for viral fusion inhibitor project, CellTiter-Glo luminescence, cherry-picked (AID 652042); assay type: functional, cell-based;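 also: potency for signal decrease meaning cytotoxicity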
[29] = molecular target: T4, Microphthalmia-associated transcription factor (Homo sapiens, UniProt O75030); assay: TRPM1 promoter luciferase signal decrease, dose response, MITF inhibitor project, cell-based, SK-MEL-5, cherry-picked, set 3 (AID 493073); assay type: functional
T4 sequence (O75030 whole entry): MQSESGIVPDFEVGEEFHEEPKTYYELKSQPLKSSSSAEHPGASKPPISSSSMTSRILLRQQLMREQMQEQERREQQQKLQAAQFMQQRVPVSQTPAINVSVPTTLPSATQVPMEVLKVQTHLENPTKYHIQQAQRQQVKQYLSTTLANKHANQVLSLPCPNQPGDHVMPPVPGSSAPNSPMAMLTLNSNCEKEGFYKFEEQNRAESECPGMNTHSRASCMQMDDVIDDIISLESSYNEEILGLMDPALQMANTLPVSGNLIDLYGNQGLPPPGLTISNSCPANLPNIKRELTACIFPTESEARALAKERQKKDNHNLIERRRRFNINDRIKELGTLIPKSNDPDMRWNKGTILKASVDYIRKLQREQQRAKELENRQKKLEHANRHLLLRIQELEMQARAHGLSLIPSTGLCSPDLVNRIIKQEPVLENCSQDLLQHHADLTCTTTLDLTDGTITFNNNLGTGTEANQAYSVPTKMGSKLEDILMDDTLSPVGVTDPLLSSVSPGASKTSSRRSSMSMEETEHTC

[30] = off-target signal loss in HeLa-CEM21 co-culture – HeLa F-luc CTL cells, cherry-picked, counter-screen for HIV-1 Env fusion inhibitor project, dose response (AID 652040); assay type: functional, cell-based;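 also: potency for signal decrease marking cytotoxic or nonspecific inhibition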
[31] = system: HEK293; assay: NOD1 signaling inhibitors, primary screen, cell-based, luminescence, uHTS (AID 1578); assay type: functional; settings: Homo sapiens
[32] = molecular target: T2, Phospholipase D1; assay: PLD1 inhibitor potency in cells, dose response (AID 602151); assay type: functional;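 also: cellular PLD1 assay in Calu-1 cells stimulated with PMA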
[33] = molecular target: T3, Phospholipase D2; assay: PLD2 inhibitor potency in cells, dose response (AID 602147); assay type: functional;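 also: cellular assay in HEK293 cells overexpressing GFP-tagged PLD2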
[34] = molecular target: CAAX prenyl protease 2 (Homo sapiens, UniProt Q9Y256); assay: human Rce1 protease inhibitors, dose response, biochemical, plate reader, dry powder samples (AID 588848)
[35] = molecular target: CAAX prenyl protease 2 (Saccharomyces cerevisiae S288c, UniProt Q03530); assay type: biochemical
[36] = Luminescence Cell-Based Dose Confirmation HTS to Identify Inhibitors of Platelet Dense Granule Release. [Related pubchem assays: 1663 (Primary HTS), 1678 (Summary of Project)]; assay type: functional
[37] = molecular target: Luciferin 4-monooxygenase (Photinus pyralis, UniProt P08659); assay: firefly luciferase enzyme inhibitors, dose response, biochemical, luminescence (AID 1891)
[38] = mammalian cell cytotoxicity, dose response, cytotoxicity control, plate reader, cherry-pick samples (AID 504397); assay type: functional, cell-based
[39] = molecular target: Beta-2 adrenergic receptor (Homo sapiens, UniProt P07550); assay: beta2AR agonists driving receptor internalization, dose response, cell-based, FAP fluorogen, flow cytometry, cherry pick 1 (AID 588763); assay type: functional
Chain of Beta-2 adrenergic receptor (P07550 whole entry): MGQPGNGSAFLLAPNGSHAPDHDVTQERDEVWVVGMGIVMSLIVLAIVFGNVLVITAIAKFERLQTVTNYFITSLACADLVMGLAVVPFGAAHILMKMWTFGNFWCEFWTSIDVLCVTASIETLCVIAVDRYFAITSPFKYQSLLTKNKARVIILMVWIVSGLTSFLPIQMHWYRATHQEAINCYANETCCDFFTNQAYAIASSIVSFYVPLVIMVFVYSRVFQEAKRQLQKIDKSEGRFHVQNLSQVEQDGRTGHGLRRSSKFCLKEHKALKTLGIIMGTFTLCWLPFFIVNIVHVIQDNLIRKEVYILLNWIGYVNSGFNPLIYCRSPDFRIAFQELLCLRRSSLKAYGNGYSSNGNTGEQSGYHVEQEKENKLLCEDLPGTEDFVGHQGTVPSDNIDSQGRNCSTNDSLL

T2 sequence (Q13393 whole entry): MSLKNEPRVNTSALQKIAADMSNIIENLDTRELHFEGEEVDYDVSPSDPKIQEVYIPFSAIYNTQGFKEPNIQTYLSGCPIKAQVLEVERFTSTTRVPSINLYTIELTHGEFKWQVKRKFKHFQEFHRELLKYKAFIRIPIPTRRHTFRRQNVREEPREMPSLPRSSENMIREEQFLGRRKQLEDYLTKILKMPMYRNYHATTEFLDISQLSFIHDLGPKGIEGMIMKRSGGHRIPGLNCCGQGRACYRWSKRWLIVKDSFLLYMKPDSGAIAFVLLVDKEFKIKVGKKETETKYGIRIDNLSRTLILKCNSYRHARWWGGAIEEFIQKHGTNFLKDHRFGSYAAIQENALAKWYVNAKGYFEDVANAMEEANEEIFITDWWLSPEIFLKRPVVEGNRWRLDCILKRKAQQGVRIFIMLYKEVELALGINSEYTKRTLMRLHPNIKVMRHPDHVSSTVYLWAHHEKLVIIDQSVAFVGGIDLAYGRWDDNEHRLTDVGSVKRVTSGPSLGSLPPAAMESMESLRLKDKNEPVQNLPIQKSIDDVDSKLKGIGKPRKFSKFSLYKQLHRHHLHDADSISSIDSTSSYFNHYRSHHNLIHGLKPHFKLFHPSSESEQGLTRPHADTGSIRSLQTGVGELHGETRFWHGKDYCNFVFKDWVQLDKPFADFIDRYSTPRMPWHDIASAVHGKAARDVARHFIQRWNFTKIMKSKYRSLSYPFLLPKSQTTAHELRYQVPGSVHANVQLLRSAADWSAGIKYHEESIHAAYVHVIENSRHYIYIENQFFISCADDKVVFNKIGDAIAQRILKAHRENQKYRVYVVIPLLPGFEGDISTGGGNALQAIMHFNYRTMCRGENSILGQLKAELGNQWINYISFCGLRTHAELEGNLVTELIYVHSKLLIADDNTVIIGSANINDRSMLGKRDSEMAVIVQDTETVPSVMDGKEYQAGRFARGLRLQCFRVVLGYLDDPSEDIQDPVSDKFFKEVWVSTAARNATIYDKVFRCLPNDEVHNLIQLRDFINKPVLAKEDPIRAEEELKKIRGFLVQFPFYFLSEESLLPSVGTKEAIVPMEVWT
T3 sequence (O14939 whole entry): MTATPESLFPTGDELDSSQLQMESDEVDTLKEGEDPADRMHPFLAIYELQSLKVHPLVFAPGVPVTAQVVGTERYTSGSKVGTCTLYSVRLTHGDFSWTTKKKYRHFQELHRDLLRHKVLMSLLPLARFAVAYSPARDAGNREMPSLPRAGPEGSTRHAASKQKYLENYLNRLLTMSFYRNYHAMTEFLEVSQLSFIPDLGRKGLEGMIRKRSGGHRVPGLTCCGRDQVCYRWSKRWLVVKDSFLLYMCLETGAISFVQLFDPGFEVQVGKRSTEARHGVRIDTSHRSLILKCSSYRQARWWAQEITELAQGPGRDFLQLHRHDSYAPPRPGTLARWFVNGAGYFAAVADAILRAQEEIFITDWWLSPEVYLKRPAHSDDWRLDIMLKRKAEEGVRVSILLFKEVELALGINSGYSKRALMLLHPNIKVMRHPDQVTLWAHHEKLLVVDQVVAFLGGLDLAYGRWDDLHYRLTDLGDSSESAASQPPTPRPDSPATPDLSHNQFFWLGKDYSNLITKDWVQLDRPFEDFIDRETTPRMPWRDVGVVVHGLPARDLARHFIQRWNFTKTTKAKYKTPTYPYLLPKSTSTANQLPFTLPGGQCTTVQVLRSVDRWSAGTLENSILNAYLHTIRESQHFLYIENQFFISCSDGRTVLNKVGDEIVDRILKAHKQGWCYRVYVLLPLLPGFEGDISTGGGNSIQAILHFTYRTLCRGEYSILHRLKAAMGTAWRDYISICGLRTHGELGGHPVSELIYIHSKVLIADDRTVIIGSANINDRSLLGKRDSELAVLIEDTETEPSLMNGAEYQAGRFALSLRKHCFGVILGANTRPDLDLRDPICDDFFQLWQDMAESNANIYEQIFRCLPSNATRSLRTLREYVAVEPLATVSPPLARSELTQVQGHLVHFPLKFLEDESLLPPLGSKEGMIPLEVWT
Chain of Paired box protein Pax-8 (Q06710 whole entry, the tested form may be a part): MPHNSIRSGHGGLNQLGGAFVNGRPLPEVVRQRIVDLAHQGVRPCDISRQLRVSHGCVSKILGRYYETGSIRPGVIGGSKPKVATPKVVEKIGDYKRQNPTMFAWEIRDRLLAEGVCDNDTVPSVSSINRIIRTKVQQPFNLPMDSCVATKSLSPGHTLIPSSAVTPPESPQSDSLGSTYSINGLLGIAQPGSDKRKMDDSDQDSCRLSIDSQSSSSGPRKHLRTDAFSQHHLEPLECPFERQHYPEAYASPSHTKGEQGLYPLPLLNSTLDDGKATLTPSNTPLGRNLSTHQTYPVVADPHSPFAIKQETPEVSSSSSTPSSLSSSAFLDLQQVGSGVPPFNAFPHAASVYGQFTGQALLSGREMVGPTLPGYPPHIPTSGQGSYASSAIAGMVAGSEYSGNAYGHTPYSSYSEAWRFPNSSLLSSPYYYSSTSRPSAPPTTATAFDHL
Chain of CAAX prenyl protease 2 (Homo sapiens, UniProt Q9Y256) (Q9Y256 whole entry): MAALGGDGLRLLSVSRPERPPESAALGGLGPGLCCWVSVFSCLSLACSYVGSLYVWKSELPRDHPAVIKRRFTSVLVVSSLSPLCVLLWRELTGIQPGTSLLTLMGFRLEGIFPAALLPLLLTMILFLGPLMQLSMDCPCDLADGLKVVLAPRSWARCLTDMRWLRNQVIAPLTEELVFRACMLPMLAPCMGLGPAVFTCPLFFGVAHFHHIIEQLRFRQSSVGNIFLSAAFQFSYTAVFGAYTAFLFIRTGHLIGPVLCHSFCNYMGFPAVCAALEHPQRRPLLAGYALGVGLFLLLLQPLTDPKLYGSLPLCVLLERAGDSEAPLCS
Chain of CAAX prenyl protease 2 (Saccharomyces cerevisiae S288c, UniProt Q03530) (Q03530 whole entry): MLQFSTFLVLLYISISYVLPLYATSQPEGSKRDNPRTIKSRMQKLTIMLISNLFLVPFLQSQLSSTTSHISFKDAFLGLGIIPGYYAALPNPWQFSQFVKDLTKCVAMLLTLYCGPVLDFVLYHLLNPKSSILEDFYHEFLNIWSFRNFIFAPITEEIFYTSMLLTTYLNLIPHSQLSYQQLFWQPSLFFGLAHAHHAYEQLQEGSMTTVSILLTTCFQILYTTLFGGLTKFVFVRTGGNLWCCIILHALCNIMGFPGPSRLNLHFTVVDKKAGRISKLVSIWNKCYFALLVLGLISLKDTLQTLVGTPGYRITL
Chain of Procathepsin L (P07711 whole entry, the tested form may be a part): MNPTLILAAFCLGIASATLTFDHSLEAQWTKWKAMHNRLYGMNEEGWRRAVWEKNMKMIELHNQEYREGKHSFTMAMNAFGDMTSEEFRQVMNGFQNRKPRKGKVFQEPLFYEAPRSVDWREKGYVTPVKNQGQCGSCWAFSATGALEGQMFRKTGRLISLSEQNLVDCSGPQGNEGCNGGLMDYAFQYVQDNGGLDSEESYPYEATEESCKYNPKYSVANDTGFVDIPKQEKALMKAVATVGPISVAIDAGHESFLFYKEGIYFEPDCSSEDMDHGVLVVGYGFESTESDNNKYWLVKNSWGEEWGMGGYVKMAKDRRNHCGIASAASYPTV
Chain of Latent membrane protein 1 (P03230 whole entry): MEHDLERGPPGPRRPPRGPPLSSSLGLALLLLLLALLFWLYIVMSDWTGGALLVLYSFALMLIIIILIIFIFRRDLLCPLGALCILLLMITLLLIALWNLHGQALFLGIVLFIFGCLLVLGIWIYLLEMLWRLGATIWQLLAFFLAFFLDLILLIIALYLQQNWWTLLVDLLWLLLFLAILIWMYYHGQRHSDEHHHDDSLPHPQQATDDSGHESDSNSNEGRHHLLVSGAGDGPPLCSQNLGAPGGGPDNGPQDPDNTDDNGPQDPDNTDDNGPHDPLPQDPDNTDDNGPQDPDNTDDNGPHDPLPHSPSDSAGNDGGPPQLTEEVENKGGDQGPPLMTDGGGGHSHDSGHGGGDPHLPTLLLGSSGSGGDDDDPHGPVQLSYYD
Chain of Luciferin 4-monooxygenase (P08659 whole entry): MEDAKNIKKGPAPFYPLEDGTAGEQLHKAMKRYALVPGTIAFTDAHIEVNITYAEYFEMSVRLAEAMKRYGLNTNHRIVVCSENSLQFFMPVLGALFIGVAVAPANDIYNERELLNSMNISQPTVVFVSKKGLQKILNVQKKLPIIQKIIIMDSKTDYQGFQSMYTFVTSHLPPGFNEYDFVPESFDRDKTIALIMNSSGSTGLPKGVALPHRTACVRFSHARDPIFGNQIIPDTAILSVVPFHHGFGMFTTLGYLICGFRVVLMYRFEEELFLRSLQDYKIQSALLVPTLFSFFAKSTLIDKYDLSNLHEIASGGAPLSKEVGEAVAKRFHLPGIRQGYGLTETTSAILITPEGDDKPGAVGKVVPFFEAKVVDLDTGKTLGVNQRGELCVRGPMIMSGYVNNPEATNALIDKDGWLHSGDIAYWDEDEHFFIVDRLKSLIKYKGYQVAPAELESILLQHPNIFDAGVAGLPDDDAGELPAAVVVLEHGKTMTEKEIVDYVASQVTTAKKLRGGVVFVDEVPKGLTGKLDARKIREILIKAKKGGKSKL

For O=c1c(O)c(-c2ccc(O)c(O)c2)oc2cc(O)cc(O)c12 [QUERCETIN DIHYDRATE], the IC50 [1] was 16.1 µM (active), the EC50 [2] was > 29.9 µM (not active) and the AC50 [3] was 233 µM (active). The IC50 [4] was 385 nM (active) and the IC50 [5] was > 59.6 µM (not active).
In the case of COc1ccc(/C=C/c2nc3ccccc3c(=O)n2Cc2ccccc2)cc1, the IC50 [6] is reported as > 80 µM (inactive) and the IC50 [7] is reported as > 80 µM (inactive).
With O=C(NCCN1CCC2(CC1)C(=O)NCN2c1cccc(F)c1)c1cnc2ccccc2c1 the IC50 [8] was 2.8 µM (active) and the IC50 [9] was 130 nM (active).
In the case of CCSCCc1nnc(NC(=O)Nc2cccc(C(F)(F)F)c2)s1, the IC50 [10] is reported as 2.57 µM (active), the AC50 [11] is reported as > 100 µM (inactive) and the IC50 [12] is reported as > 20 µM (inactive). The AC50 [13] was 5.02 µM (active), the AC50 [14] was 8.04 µM (active) and the AC50 [15] was 27.4 µM (active). The AC50 [16] was 23.1 µM (active), the IC50 [17] was 2.68 µM (active) and the AC50 [18] was 35.2 µM (active). For the same molecule, the EC50 [19] was 15 µM (active), the AC50 [20] was 5.97 µM (active) and the AC50 [21] was 7.84 µM (active). For the same molecule, the AC50 [22] was 5.05 µM (active), the AC50 [23] was 4.07 µM (active) and the IC50 [24] was 9.13 µM (active). The AC50 [25] was 6.62 µM (active), the AC50 [26] was 3.91 µM (active) and the AC50 [27] was 7.31 µM (active). The AC50 [28] was 5.2 µM (active), the AC50 [29] was 8.99 µM (active) and the AC50 [30] was 3.56 µM (active). For the same molecule, the EC50 [31] was 2.16 µM (active).
For CN1CN(c2ccccc2)C2(CCN(CCNC(=O)c3ccc4ccccc4c3)CC2)C1=O, the IC50 [32] was 2.8 µM (active) and the IC50 [33] was 20 µM (active).
For O=C(COC(=O)/C=C/c1cn(-c2ccccc2)nc1-c1ccc2c(c1)OCCO2)NC1CCS(=O)(=O)C1 (centres undefined), the AC50 [34] was 17.4 µM (active), the AC50 [35] was 542 nM (active) and the EC50 [36] was > 112 µM (not active). For the same molecule, the EC50 [37] was > 112 µM (not active) and the AC50 [38] was 89.2 µM (active).
With O=C(NCCCn1ccnc1)C1CCCN(S(=O)(=O)c2cc(Cl)ccc2Cl)C1 (centres undefined) the EC50 [39] was 999 nM (active).
